Assay results from US20050282743A1, “Molecular interactions in cells” (Arbor Vita Corporation, priority 2001, published 2005).
Ends that are not written are not given here. Peptide text beside a SMILES is read from it. * marks the point of attachment. Biotin = O=C1N[C@H]2[C@H](CS[C@H]2CCCCC(=O)*)N1

Tests used:
Format in all cases: binding
[1] = target: T1, PDZ protein (GST-PDZ fusion) (Homo sapiens, UniProt Q9NRD5); test: G' assay (10 uM PL peptide), results of TABLE 7 and TABLE 12; settings: PDZ PICK1, PDZ Domain 1
T1 construct: made in house; host or cells: E. coli (DH5alpha, BL21 or JM109)
Procedure, shortened: (§1)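 Biotinylated PL peptides at 10 uM (vs 20 uM in G^0 assay) bound to GST-PDZ fusions; PDZ protein at 5 ug/ml unless another concentration listed. Bound peptide read as A450 nm, classified 0–5 (0 = A450 0; 5 = A450 >4 repeated).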

[2] = target: T2, PDZ protein (GST-PDZ fusion) (Homo sapiens, UniProt Q9ULD6); test: as above; settings: PDZ KIAA1284, PDZ Domain 1
T2 construct: made in house; host or cells: E. coli (DH5alpha, BL21 or JM109)
T2 sequence (Q9ULD6 1-942): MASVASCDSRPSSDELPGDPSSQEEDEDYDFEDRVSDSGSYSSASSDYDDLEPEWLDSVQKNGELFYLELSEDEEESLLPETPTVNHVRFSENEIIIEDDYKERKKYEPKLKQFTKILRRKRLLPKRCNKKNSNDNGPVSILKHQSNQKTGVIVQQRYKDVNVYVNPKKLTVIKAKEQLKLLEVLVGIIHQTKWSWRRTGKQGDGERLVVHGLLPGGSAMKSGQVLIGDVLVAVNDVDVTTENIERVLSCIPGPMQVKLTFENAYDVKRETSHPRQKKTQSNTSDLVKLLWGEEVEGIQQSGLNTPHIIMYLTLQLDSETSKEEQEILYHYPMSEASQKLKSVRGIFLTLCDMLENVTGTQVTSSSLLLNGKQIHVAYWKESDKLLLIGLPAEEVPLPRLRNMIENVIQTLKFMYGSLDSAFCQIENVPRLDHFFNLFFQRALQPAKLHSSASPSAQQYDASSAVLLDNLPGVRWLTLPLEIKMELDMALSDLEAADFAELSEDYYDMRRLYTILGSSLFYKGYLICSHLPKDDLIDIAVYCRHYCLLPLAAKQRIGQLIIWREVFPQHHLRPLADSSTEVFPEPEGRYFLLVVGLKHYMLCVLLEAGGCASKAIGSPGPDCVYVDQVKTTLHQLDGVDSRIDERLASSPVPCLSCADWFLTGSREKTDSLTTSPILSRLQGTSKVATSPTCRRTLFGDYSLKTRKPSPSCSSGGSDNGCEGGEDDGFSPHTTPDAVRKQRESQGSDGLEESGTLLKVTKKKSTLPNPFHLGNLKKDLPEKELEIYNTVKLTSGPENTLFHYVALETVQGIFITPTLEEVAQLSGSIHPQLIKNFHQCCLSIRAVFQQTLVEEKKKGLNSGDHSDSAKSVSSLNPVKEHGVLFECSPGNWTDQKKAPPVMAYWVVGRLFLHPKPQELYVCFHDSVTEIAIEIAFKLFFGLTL
Procedure, shortened: as §1

TIP-1 (GST-TIP-1) = target: T3, TIP-1 (GST-TIP-1) (Homo sapiens, UniProt O14907, I73S); test: G assay with unlabeled 8 amino acid competitor peptide (Example 4, FIGS. 2B, 2C)
T3 construct: made in house; host or cells: E. coli DH5alpha
T3 sequence (O14907 3-123 I73S): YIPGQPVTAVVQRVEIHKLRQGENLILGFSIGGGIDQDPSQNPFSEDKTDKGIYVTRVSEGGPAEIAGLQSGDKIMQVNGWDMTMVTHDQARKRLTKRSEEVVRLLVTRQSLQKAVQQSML
Method: FIGS. 2A, 2B and 2C show binding and competition assays with the PDZ ligands of CD95 (Fas) and Tax for the PDZ domain of TIP-1.
Upon infection, the higher affinity of Tax could preferentially bind TIP-1 protein available in the cell, removing the TIP-1 bound to CD95 (Fas) and thereby rendering the cell less able to undergo apoptosis. In order to test this, competition experiments between Tax and CD95 for TIP-1 binding were performed using the ‘G Assay’, but adding additional unlabeled competitor peptide at step 9 of the ‘G Assay’ presented in EXAMPLE 3 section D.
FIGS. 2B and 2C show the results of these experiments. The graphs show the amount of binding of the biotinylated 20 amino acid peptide in the presence of increasing concentrations of unlabeled 8 amino acid competitor.

T1 sequence (Q9NRD5 whole entry, the tested form may be a part): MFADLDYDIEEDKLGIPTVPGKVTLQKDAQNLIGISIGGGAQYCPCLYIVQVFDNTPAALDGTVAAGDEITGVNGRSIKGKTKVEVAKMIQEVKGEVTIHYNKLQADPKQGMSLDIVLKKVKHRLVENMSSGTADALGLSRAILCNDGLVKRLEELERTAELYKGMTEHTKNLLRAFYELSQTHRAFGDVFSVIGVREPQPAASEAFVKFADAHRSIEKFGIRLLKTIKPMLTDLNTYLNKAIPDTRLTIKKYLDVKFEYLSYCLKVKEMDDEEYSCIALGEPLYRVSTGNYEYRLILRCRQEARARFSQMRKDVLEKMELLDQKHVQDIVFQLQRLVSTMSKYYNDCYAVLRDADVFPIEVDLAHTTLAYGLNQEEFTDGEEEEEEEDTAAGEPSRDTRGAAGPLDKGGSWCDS

Row | Compound | Classification [1] | Classification [2] | also measured
1 | CC(C)C[C@H](NC(=O)[C@H](Cc1c[nH]c2ccccc12)NC(=O)[C@H](Cc1c[nH]cn1)NC(=O)[C@H](CCCNC(=N)N)NC(=O)[C@H](CC(C)C)NC(=O)[C@@H](NC(=O)[C@H](Cc1ccccc1)NC(=O)[C@H](CCC(N)=O)NC(=O)[C@H](CCCNC(=N)N)NC(=O)[C@@H](NC(=O)[C@H](CCC(=O)O)NC(=O)CNC(=O)[C@H](CCCNC(=N)N)NC(=O)[C@H](CC(=O)O)NC(=O)[C@@H](NC(=O)[C@H](CC(C)C)NC(=O)[C@H](CCC(=O)O)NC(=O)[C@H](CCCNC(=N)N)NC(=O)CCCC[C@@H]1SC[C@@H]2NC(=O)N[C@@H]21)C(C)C)C(C)C)[C@@H](C)O)C(=O)N[C@@H](CCCCN)C(=O)N[C@H](C(=O)O)C(C)C [Dopamine transporter (Na+-dependent)] (Biotin-RELVDRGEVRQFTLRHWLKV-OH; C-terminus assumed) | 2 (A450 nm 1-2) |  | 
2 | CSCC[C@H](NC(=O)[C@H](C)NC(=O)[C@H](CCCNC(=N)N)NC(=O)CNC(=O)[C@@H](NC(=O)[C@H](Cc1c[nH]c2ccccc12)NC(=O)[C@H](CCCNC(=N)N)NC(=O)CNC(=O)CCCC[C@@H]1SC[C@@H]2NC(=O)N[C@@H]21)[C@@H](C)O)C(=O)N[C@@H](CO)C(=O)N[C@@H](C)C(=O)N[C@@H](Cc1c[nH]c2ccccc12)C(=O)N[C@@H](CCCCN)C(=O)N1CCC[C@H]1C(=O)N[C@H](C(=O)N[C@@H](CCCNC(=N)N)C(=O)N[C@@H](CCCNC(=N)N)C(=O)N[C@@H](CCC(=O)O)C(=O)N[C@H](C(=O)N[C@@H](CCC(=O)O)C(=O)N[C@H](C(=O)O)C(C)C)[C@@H](C)O)[C@@H](C)O [HPV E6 #35 (modified)] (Biotin-GRWTGRAMSAWKPTRRETEV-OH; C-terminus assumed) |  | 1 (A450 nm 0-1) | 
3 | CC[C@H](C)[C@H](NC(=O)[C@H](CCC(N)=O)NC(=O)CCCC[C@@H]1SC[C@@H]2NC(=O)N[C@@H]21)C(=O)N[C@@H](CO)C(=O)N1CCC[C@H]1C(=O)NCC(=O)NCC(=O)N[C@@H](CC(C)C)C(=O)N[C@@H](CCC(=O)O)C(=O)N1CCC[C@H]1C(=O)N1CCC[C@H]1C(=O)N[C@@H](CO)C(=O)N[C@@H](CCC(=O)O)C(=O)N[C@@H](CCCCN)C(=O)N[C@@H](Cc1c[nH]cn1)C(=O)N[C@@H](Cc1ccccc1)C(=O)N[C@@H](CCCNC(=N)N)C(=O)N[C@@H](CCC(=O)O)C(=O)N[C@H](C(=O)N[C@@H](CCC(=O)O)C(=O)N[C@H](C(=O)O)C(C)C)[C@@H](C)O [Tax] |  |  | competition for binding to TIP-1 with labeled CD95 (FIG. 2B) (TIP-1 (GST-TIP-1); unlabeled 8 amino acid Tax competitor at 20, 100, and 500 μM, 20 μM labeled CD95 20-mer): able to compete; excess able to compete effectively for TIP-1 binding (TIP-1 (GST-TIP-1); unlabeled Tax 8-mer versus labeled CD95): 5 fold
4 | CC[C@H](C)[C@H](NC(=O)[C@H](C)NC(=O)[C@H](CC(C)C)NC(=O)[C@H](Cc1c[nH]c2ccccc12)NC(=O)[C@H](Cc1c[nH]cn1)NC(=O)[C@H](CCC(N)=O)NC(=O)[C@H](CC(C)C)NC(=O)[C@H](CCC(N)=O)NC(=O)[C@H](Cc1ccccc1)NC(=O)[C@H](CCC(N)=O)NC(=O)[C@H](CCCNC(=N)N)NC(=O)[C@@H](NC(=O)[C@H](CC(=O)O)NC(=O)[C@H](CCCNC(=N)N)NC(=O)[C@H](CCC(N)=O)NC(=O)[C@H](C)NC(=O)[C@@H](NC(=O)[C@H](CC(C)C)NC(=O)[C@H](Cc1c[nH]cn1)NC(=O)[C@H](Cc1c[nH]cn1)NC(=O)CCCC[C@@H]1SC[C@@H]2NC(=O)N[C@@H]21)C(C)C)[C@@H](C)CC)C(=O)O [noradrenaline transporter] (Biotin-HHLVAQRDIRQFQLQHWLAI-OH; C-terminus assumed) | 1 (A450 nm 0-1) |  | 
5 | A2AA_HUMAN (modified) (Biotin-HDFRRAFKKILARGDRKRIV; not fully specified) |  | 1 (A450 nm 0-1) | 
